Patent publication US10919869B2, “Thiazole derivative and applications” (EAST CHINA UNIVERSITY OF SCIENCE AND TECHNOLOGY, priority 2016, dated 2021)
Where two headings read alike, the source gives them in different places.

Experiments:
hsDHODH = hsDHODH (Homo sapiens (Human), UniProt Q02127); assay: Activity test at enzyme level: DHODH inhibition, DCIP absorbance at 600 nm; type: biochemical
Method: Culture and Purification of hsDHODH Protein
The correctly sequenced recombinant plasmid pET-19b-DHODH was transformed into competent E. coli BL21 (DE3), and cultured on LB plate containing ampicillin. Colonies were randomly selected, inoculated into LB medium containing […], and incubate overnight at 37° C., 230 rpm. The cells were inoculated at a ratio of 1:200 in 500 mL of LB medium containing […] and expanded at 37° C., 230 rpm. When the OD value of the cells reached 0.8-1, IPTG was added into the medium to a final concentration of IPDG of 0.5 mM, and expression was induced overnight at 25° C. The induced cells were collected by centrifugation at […], 4° C., washed with deionized water, and centrifuged again to collect the bacterial pellet, which was stored at −80° C.
Purification of protein: cells were re-suspended in lysis liquid containing 50 mM HEPES (pH 8.0), 0.15 M NaCl, 10 mM imidazole, 10% glycerol, 0.1% Triton X-100, and a small amount of soy protease inhibitor added. After re-suspended and mixed homogeneously, cells were ultrasonically disrupted. The disruption solution was centrifuged for 30 min, and the supernatant and precipitate were taken for protein electrophoresis to determine the form of protein. The supernatant was loaded onto a Ni-NTA column, and the pass-through liquid was collected, and then the resin was washed for 3-4 times with a lysis liquid containing 20 mM imidazole, and finally eluted with a lysis liquid containing 300 mM imidazole. After elution, protein solution was collected. 10 μL of the above protein sample was taken for SDS-PAGE electrophoresis to determine the content of target protein. Finally, the eluted protein solution is dialyzed in the dialysis liquid to remove imidazole, thereby obtaining a pure protein.
Method for Testing Activities of Compounds at Enzyme Level
Principles of activity test at enzyme level: firstly, dihydroorotate (DHO) is oxidatively dehydrogenated by DHODH to form orotic acid (Orotate, OA), accompanied by reduction of Flavin mononucleotide (FMN) into reduced flavin mononucleotide (FMNH2) by accepting 2H+ and 2e−, then coenzyme Q (CoQ) as hydrogen acceptor accepting electron and proton from FMNH2 is reduced into reduced coenzyme Q (CoQH2), reduced coenzyme Q transfers electrons to a chromogenic substrate, […] (DCIP), and finally DCIP was reduced. […] The degree to which the substrate DHO is oxidized can be judged based on the degree of decrease in absorbance. The degree of oxidation of the substrate DHO per unit time is the initial rate of the enzymatic reaction. Upon addition of a inhibitor, the initial rate of the enzymatic reaction is reduced.
Substrate DHO was added to start the reaction with a DHO final concentration of 500 μM. The absorbance was read at 600 nm using a BioTek microplate reader and read every 30 s for 6 min. […] For calculating IC50 of a compound, Origin 8.0 was used to test the inhibition rate at least 8 concentrations.

CIA model rats = assay: Pharmacodynamic evaluation on rheumatoid arthritis model (type II collagen-induced arthritis, CIA); type: in vivo, Wistar rat; conditions: CIA Wistar rats; for degree of joint swelling: FIG. 2B; for gain of body weight: intraperitoneal injection, FIG. 2A
Method: The animal model used in this experiment was a type II collagen-induced arthritis animal model (CIA) established by using Wistar rat. On the 0 and 7th day of the experiment, rats were subcutaneously injected with a mixed solution of Bovine II Collagen (CII) and Incomplete Freund's Adjuvant (IFA) to establish a rat model of arthritis.
In the pharmacodynamic test of Compound 1, Compound 1 and the positive drug, methotrexate were dissolved in a solvent system consisting of dimethyl sulfoxide (DMSO), polyethylene glycol 400 (PEG 400) and physiological saline at a volume ratio of 1:10:9.
During the administration to the rats (day 0 to 27 of the experiment), the body weight of a rat was weighed every three days, and the growth was observed. After the joints of the rat began to swell, the degree of joint swelling was scored every two days.
Because the incidence of inflammation in fore paw is low and the hind paws are more prone to swelling and the degree of swelling is more serious, the sum of the scores of two hind paws is used to evaluate the incidence of arthritis in rats. The maximum sum of score is 8 points.
In this experiment, Wistar rats were used to establish a CIA animal model. Joints were taken on the 28th day for subsequent fixation, paraffin embedding, section, staining and histopathological observation. The experiment results are shown as follows: During the experiment, the weight of rats in the control group continued to increase.

[1] = pharmaceutically acceptable esters (prodrugs of A and B series), hsDHODH enzyme test, read-out: IC50

hsDHODH, sequence (Q02127 whole entry): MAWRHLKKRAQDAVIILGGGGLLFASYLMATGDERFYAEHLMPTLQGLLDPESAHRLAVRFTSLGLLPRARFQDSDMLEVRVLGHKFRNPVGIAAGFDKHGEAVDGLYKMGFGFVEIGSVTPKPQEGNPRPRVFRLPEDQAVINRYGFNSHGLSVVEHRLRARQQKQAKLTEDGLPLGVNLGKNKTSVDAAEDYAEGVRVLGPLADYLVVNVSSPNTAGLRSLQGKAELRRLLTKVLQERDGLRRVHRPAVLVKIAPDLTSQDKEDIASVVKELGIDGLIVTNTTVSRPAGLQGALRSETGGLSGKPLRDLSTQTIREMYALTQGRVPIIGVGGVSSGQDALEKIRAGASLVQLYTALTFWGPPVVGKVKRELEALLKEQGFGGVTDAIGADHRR

IC50 (hsDHODH; [1]) [µM]	Compound	other results
> 50	CCCCCOC(=O)c1ccccc1/C=N/N(C)c1nc(-c2ccccc2Cl)cs1 [Compound B6, (E)-4-(2-chlorophenyl)-2-[1-methyl-2-(2-pentyloxyformylbenzylidene)hydrazino]thiazole]	–
> 50	CN(/N=C/c1ccccc1C(=O)OCOC(=O)C(C)(C)C)c1nc(-c2ccccc2Cl)cs1 [Compound B10, (pivaloyloxy)methyl (E)-2-((2-(4-(2-chlorophenyl)thiazol-2-yl)-2-methylhydrazono)methyl)benzoate]	–
> 50	CC(C)OC(=O)OCOC(=O)c1ccccc1/C=N/N(C)c1nc(-c2ccccc2Cl)cs1 [Compound B11, ((isopropoxycarbonyl)oxy)methyl (E)-2-((2-(4-(2-chlorophenyl)thiazol-2-yl)-2-methylhydrazono)methyl)benzoate]	–

Continued, compound first:

Compound	IC50 (hsDHODH; [1]) [µM]	other results
CN(/N=C/c1ccccc1C(=O)O)c1nc(-c2ccccc2Cl)cs1 [Compound 1, (E)-4-(2-chlorophenyl)-2-[1-methyl-2-(2-carboxybenzylidene)hydrazino]thiazole]	–	IC50 (hsDHODH; purified DHODH 10 nM, DHO 500 μM, CoQ 100 μM, DCIP 120 μM, read-out: IC50 (μM) hsDHODH): 0.0097 ± 0.0001 µM; degree of joint swelling (CIA model rats; 5 mg/kg intraperitoneal, compared with model group): significantly reduced; degree of joint swelling (CIA model rats; 30 mg/kg intraperitoneal, compared with model group): more significantly reduced; gain of body weight (CIA model rats; compared with model group): improve the condition of the rats and the slow gain of body weight; histopathological features of joint tissue (HE staining) (CIA model rats; joints taken on day 28, FIG. 3): significantly alleviated; synovial hyperplasia and inflammatory cell infiltration (CIA model rats; tissue sections, compared with model group): greatly improved
CCOC(=O)c1ccccc1/C=N/Nc1nc(-c2ccccc2Cl)cs1 [Compound A1, (E)-4-(2-chlorophenyl)-2-(2-ethoxyformylbenzylidenehydrazino)thiazole]	2.34 ± 0.0468	–
CCCOC(=O)c1ccccc1/C=N/Nc1nc(-c2ccccc2Cl)cs1 [Compound A2, (E)-4-(2-chlorophenyl)-2-(2-propoxyformylbenzylidenehydrazino)thiazole]	1.4 ± 0.0661	–
CC(C)OC(=O)c1ccccc1/C=N/Nc1nc(-c2ccccc2Cl)cs1 [Compound A3, (E)-4-(2-chlorophenyl)-2-(2-isopropoxyformylbenzylidenehydrazino)thiazole]	1.86 ± 0.0214	–
CCCCOC(=O)c1ccccc1/C=N/Nc1nc(-c2ccccc2Cl)cs1 [Compound A4, (E)-4-(2-chlorophenyl)-2-(2-butoxyformylbenzylidenehydrazino)thiazole]	3.53 ± 0.148	–
CCC(C)OC(=O)c1ccccc1/C=N/Nc1nc(-c2ccccc2Cl)cs1 (centres unmarked) [Compound A5, (E)-4-(2-chlorophenyl)-2-(2-(2-butoxy)formylbenzylidenehydrazino)thiazole]	4.651 ± 0.0264	–
CCCCCOC(=O)c1ccccc1/C=N/Nc1nc(-c2ccccc2Cl)cs1 [Compound A6, (E)-4-(2-chlorophenyl)-2-(2-pentyloxyformylbenzylidenehydrazino)thiazole]	> 50	–
CCCCCCOC(=O)c1ccccc1/C=N/Nc1nc(-c2ccccc2Cl)cs1 [Compound A7, (E)-4-(2-chlorophenyl)-2-(2-hexyloxyformylbenzylidenehydrazino)thiazole]	> 50	–
O=C(OC1CCCCC1)c1ccccc1/C=N/Nc1nc(-c2ccccc2Cl)cs1 [Compound A8, (E)-4-(2-chlorophenyl)-2-(2-cyclohexyloxyformylbenzylidenehydrazino)thiazole]	> 50	–
CC(C)(C)C(=O)OCOC(=O)c1ccccc1/C=N/Nc1nc(-c2ccccc2Cl)cs1 [Compound A9, (Pivaloyloxy)methyl (E)-2-((2-(4-(2-chlorophenyl)thiazol-2-yl)hydrazono)methyl)benzoate]	> 50	–
CC(C)OC(=O)OCOC(=O)c1ccccc1/C=N/Nc1nc(-c2ccccc2Cl)cs1 [Compound A10, ((isopropoxycarbonyl)oxy)methyl (E)-2-((2-(4-(2-chlorophenyl)thiazol-2-yl)hydrazono)methyl)benzoate]	> 50	–
O=C(OCc1ccccc1)c1ccccc1/C=N/Nc1nc(-c2ccccc2Cl)cs1 [Compound A11, (E)-4-(2-chlorophenyl)-2-(2-benzyloxyformylbenzylidenehydrazino)thiazole]	> 50	–
CN(C)C(=O)c1ccccc1/C=N/Nc1nc(-c2ccccc2Cl)cs1 [Compound A13, (E)-4-(2-chlorophenyl)-2-((N,N-Dimethyl)formylbenzylidenehydrazino)thiazole]	> 50	–
CCOC(=O)c1ccccc1/C=N/N(C)c1nc(-c2ccccc2Cl)cs1 [Compound B1, (E)-4-(2-chlorophenyl)-2-[1-methyl-2-(2-ethoxyformylbenzylidene)hydrazino]thiazole]	2.79 ± 0.0465	–
CCCOC(=O)c1ccccc1/C=N/N(C)c1nc(-c2ccccc2Cl)cs1 [Compound B2, (E)-4-(2-chlorophenyl)-2-[1-methyl-2-(2-propoxyformylbenzylidene)hydrazino]thiazole]	1.96 ± 0.111	–
CCCCOC(=O)c1ccccc1/C=N/N(C)c1nc(-c2ccccc2Cl)cs1 [Compound B4, (E)-4-(2-chlorophenyl)-2-[1-methyl-2-(2-butoxyformylbenzylidene)hydrazino]thiazole]	> 50	–
CCC(C)OC(=O)c1ccccc1/C=N/N(C)c1nc(-c2ccccc2Cl)cs1 (centres unmarked) [Compound B5, (E)-4-(2-chlorophenyl)-2-[1-methyl-2-(2-(2-butoxy)formylbenzylidene)hydrazino]thiazole]	> 50	–
CCCCCCOC(=O)c1ccccc1/C=N/N(C)c1nc(-c2ccccc2Cl)cs1 [Compound B7, (E)-4-(2-chlorophenyl)-2-[1-methyl-2-(2-hexyloxyformylbenzylidene)hydrazino]thiazole]	> 50	–
CN(/N=C/c1ccccc1C(=O)OC1CCCCC1)c1nc(-c2ccccc2Cl)cs1 [Compound B8, (E)-4-(2-chlorophenyl)-2-[1-methyl-2-(2-cyclohexyloxyformylbenzylidene)hydrazino]thiazole]	> 50	–
CN(Cc1cnc2nc(N)nc(N)c2n1)c1ccc(C(=O)N[C@@H](CCC(=O)O)C(=O)O)cc1 [Methotrexate, reference compound]	–	degree of joint swelling (CIA model rats; 0.3 mg/kg intraperitoneal, positive drug): significantly reduce the degree of joint swelling; gain of body weight (CIA model rats; compared with model group): improve the condition of the rats and the slow gain of body weight
